Measured values from ChEMBL document CHEMBL5360583, “Benzo[j]fluoranthene-Derived Natural Products” (J Nat Prod, 2023).
Converted amounts (≈) assume the structure as drawn. Each block holds one compound with its values, some of them ahead of it.

Assays:
Staphylococcus aureus = test: Antibacterial activity against Staphylococcus aureus assessed as zone of inhibition; format: functional
Bacillus subtilis = test: Antibacterial activity against Bacillus subtilis assessed as zone of inhibition by disc diffusion method; format: functional
[1] = Inhibition of tyrosine kinase (unknown origin); design: species or system Homo sapiens
[2] = Inhibition of IL-2 production in CD28-stimulated human Jurkat E6.1 cells; format: functional, cell-based
Enterococcus faecalis = test: Antibacterial activity against Enterococcus faecalis assessed as zone of inhibition; format: functional
SW480 = test: Cytotoxicity against human SW480 cells assessed as reduction in cell growth by MTT assay; format: functional, cell-based
L929 [3] = test: Cytotoxicity against mouse L929 cells assessed as reduction in cell viability by MTT assay; format: functional, cell-based
Caenorhabditis elegans = test: Nematicidal activity against Caenorhabditis elegans; format: functional; settings: read-out: LD50 (the source's name)
Micrococcus luteus [4] = test: Antibacterial activity against Micrococcus luteus assessed as reduction in bacterial growth; format: functional
Yarrowia lipolytica = test: Antifungal activity against Yarrowia lipolytica assessed as zone of inhibition; format: functional
L929 [5] = test: Cytotoxicity against mouse L929 cells assessed as reduction in cell viability; format: functional, cell-based
Micrococcus luteus [6] = test: Antibacterial activity against Micrococcus luteus assessed as bacterial growth inhibition; format: functional
Mucor hiemalis = test: Antifungal activity against Mucor hiemalis assessed as inhibition of fungal growth measured after 18 to 48 hrs by microbroth dilution assay; format: functional; settings: time 18-48 hrs
[7] = Antioxidant activity assessed as DPPH radical scavenging activity at 50 uM; format: functional
RAW264.7 = test: Anti-inflammatory activity in mouse RAW264.7 cells assessed as inhibition of NO production; format: functional, cell-based
Jurkat = test: Antiproliferative activity against human Jurkat cells assessed as reduction in cell viability measured after 24 hrs by MTT assay; format: functional, cell-based
Ramos = test: Antiproliferative activity against human Ramos cells assessed as reduction in cell viability measured after 24 hrs by MTT assay; format: functional, cell-based
[8] = target: Hyaluronan-binding protein 2 (Homo sapiens, UniProt Q14520); test: Inhibition of spermidine-induced human pro-PHBP autoactivation
Sequence of Hyaluronan-binding protein 2 (Q14520 24-313 limits assumed): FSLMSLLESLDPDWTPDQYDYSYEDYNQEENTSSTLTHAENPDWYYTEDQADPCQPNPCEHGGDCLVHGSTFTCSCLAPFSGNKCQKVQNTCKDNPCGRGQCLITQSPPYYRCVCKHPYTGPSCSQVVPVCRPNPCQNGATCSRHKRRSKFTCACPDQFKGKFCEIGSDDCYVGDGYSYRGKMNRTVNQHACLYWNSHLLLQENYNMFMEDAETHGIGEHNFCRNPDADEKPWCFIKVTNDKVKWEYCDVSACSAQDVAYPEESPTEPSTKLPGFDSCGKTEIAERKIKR
Sequence of Hyaluronan-binding protein 2 (Q14520 314-560 limits assumed): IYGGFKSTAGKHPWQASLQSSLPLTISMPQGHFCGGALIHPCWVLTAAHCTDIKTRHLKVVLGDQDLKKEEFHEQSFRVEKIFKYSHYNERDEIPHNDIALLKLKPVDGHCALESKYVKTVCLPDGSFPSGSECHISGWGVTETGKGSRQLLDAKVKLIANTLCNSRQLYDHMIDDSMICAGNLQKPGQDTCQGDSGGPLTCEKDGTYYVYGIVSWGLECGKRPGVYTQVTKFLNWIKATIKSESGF

[9] = Cytotoxicity against BALB/c mouse Splenocyte assessed as reduction in cell viability incubated for 48 hrs by MTT assay; format: toxicity, cell-based; settings: splenocytes
Splenocyte = test: Immunosuppressive activity in BALB/c mouse splenocyte assessed as reduction in ConA-induced mouse T-lymphocytes proliferation incubated for 48 hrs by MTT assay; format: functional, cell-based

SMILES: O=C1C[C@@H]2[C@H]3CCC(=O)c4c(O)ccc(c43)[C@]2(O)c2cccc(O)c21
inhibition zone (IZ) (Staphylococcus aureus): 12 mm
inhibition zone (IZ) (Bacillus subtilis): 11 mm

SMILES: O=C1C[C@@H]2[C@H]3CC[C@H](O)c4c(O)ccc(c43)[C@]2(O)c2cccc(O)c21
inhibition zone (IZ) (Enterococcus faecalis): 10 mm
IC50 (SW480): 9.59 µM
inhibition zone (IZ) (Staphylococcus aureus): 10 mm

SMILES: O=C1C[C@H](O)[C@H]2c3c(ccc(O)c31)-c1cc(O)c3c(O)cccc3c12
IC50 (L929 [3]): 1.1 µM

SMILES: O=C1C[C@H]2C(=C3CCC(=O)c4c(O)ccc2c43)c2cccc(O)c21
LC50 (Caenorhabditis elegans): 100 µg/mL (≈ 314 µM)
IC50 (L929 [3]): 10.4 µM
MIC (Micrococcus luteus [4]): 16.7 µg/mL (≈ 52.5 µM)
inhibition zone (IZ) (Yarrowia lipolytica): 9 mm
inhibition zone (IZ) (Bacillus subtilis): 11 mm

SMILES: O=C1C(O)=c2c(c3cc(O)c(=O)c4c(O)ccc2c4-3)-c2cccc(O)c21
IC50 (L929 [5]): 7 µM

SMILES: COC1C(=O)c2c(O)cccc2C2=C3CCC(=O)c4c(O)ccc(c43)C21 (centres undefined)
IC50 [1]: 45 nM
IC50 [2]: 2400 nM

SMILES: O=C1C[C@@H]2[C@H]3CC[C@@H](O)c4c(O)ccc(c43)[C@]2(O)c2cccc(O)c21
inhibition zone (IZ) (Enterococcus faecalis): 10 mm
inhibition zone (IZ) (Bacillus subtilis): 10 mm

SMILES: O=C1C[C@@H]2[C@@H]3CCC(=O)c4c(O)ccc(c43)[C@]2(O)c2cccc(O)c21
LC50 (Caenorhabditis elegans): 25 µg/mL (≈ 74.3 µM)
inhibition zone (IZ) (Yarrowia lipolytica): 7 mm
inhibition zone (IZ) (Bacillus subtilis): 10 mm

SMILES: O=C1C[C@H]2C(=C3c4c2ccc(O)c4[C@@H](O)C[C@H]3O)c2cccc(O)c21
Activity [7]: 1.74%

SMILES: O=C1c2c3c(cc(O)c2[C@H](O)[C@@H]2O[C@H]12)C1C=CC(O)=C2C(O)=CC=C3C21 (some centres undefined)
LC50 (Caenorhabditis elegans): 50 µg/mL (≈ 143 µM)
inhibition zone (IZ) (Yarrowia lipolytica): 8 mm
inhibition zone (IZ) (Bacillus subtilis): 11 mm

SMILES: Oc1cccc2c3c(ccc12)-c1ccc(O)c2cccc-3c12
IC50 at 48 h [9]: 0.22 µg/mL (≈ 0.774 µM)
IC50 (Splenocyte): 0.025 µg/mL (≈ 0.0879 µM)

More lines, now with the values ahead:

IC50 [1]: 760 nM
IC50 [2]: 2500 nM
SMILES: CO[C@@H]1[C@H](OC)c2c(O)cccc2C2=C3CCC(=O)c4c(O)ccc(c43)[C@H]21

MIC (Micrococcus luteus [6]): 16.7 µg/mL (≈ 55.6 µM)
SMILES: Oc1cccc2c3c(ccc12)-c1ccc(O)c2c(O)ccc-3c12

MIC (Mucor hiemalis): 4.3 µg/mL (≈ 13.1 µM)
SMILES: COc1cccc2c3c(ccc12)-c1ccc(O)c2c(OC)ccc-3c12

IC50 [1]: 60 nM
IC50 [2]: 400 nM
SMILES: CO[C@@H]1[C@H](O)c2c(O)cccc2C2=C3CCC(=O)c4c(O)ccc(c43)[C@H]21

IC50 (RAW264.7): 14.4 µM
SMILES: CO[C@H]1C[C@H](O)C2=C3c4cccc(O)c4C(=O)[C@@H](O)[C@@H]3C3=CC=C(O)C1C32 (some centres undefined)

IC50 (Jurkat): 14.1 µM
IC50 (Ramos): 6.6 µM
SMILES: O=C1C[C@]2(O)C(=C3C=CC(=O)c4c(O)ccc2c43)c2cccc(O)c21

IC50 [1]: > 5000 nM
IC50 [2]: > 5000 nM
SMILES: COC1C(O)c2c(O)cccc2C2=C3CCC(=O)c4c(O)ccc(c43)C21 (centres undefined)

IC50 (RAW264.7): 21.1 µM
SMILES: CO[C@H]1C[C@H](O)C2=C3c4cccc(O)c4C(=O)C[C@@H]3c3ccc(O)c1c32 [HYPOXYLONOL B]

IC50 [8]: 14 µM
SMILES: O=C1C(O)=c2c(c3ccc(=O)c4c(O)ccc2c4-3)-c2cccc(O)c21

MIC (Micrococcus luteus [6]): 8.3 µg/mL (≈ 26.4 µM)
SMILES: COc1cccc2c3c(ccc12)-c1ccc(O)c2c(O)ccc-3c12
